In one data set the test system is HIF-1α. Description: Western blot of HIF-1α expression in U87 tumors. In kind it is in vivo. The conditions noted are these: for HIF-1α protein levels, % of that in U87MG tumors: Western blot; for hypoxia inducible factor-1α (HIF-1α) protein levels: compared to U87MG tumors. The method, then: FIGS. 9A-E show the effect of nNOS silencing in U87 gliomas on tumor tissue oxygenation. Tissues shown in (A) were harvested and stained after injection of pimonidazole (60 mg/kg), followed by biotinylated lectin. Confocal laser scanning microscopy images (top row) of Hypoxyprobe™-1 adducts stained hypoxic cells (red), lectin-bound perfused blood vessels (green) and nuclei (blue) in U87MG, U87-shRNA58, and […] are 630 μm across. Binarized images (bottom row) of above confocal images. Bar indicates 100 μm. (B-C) Quantification of vessel segments (B) and vessel perimeter (C). (D) Quantification of hypoxic area. n=7, 3, 4 respectively. *p<0.05, as compared to U87MG tumors. (E) Western blot analysis of HIF-1α expression in U87MG and nNOS-snRNA-transfected U87 tumors. HIF-1α protein levels in U87-shRNA58 and U87-shRNA150 tumors were 46% and 59% of that in U87MG tumors, respectively. FIGS. 10A-C show the effect of nNOS silencing in U87 gliomas on fractionated radiation therapy. (A) Tumor growth normalized to day 0 tumor volume. (B) Tumor growth delay evaluated at the levels of 2, 4, and 6 times Vo. *P<0.05 as compared to U87MG. (C) Kaplan-Meier survival plot. U87 control (n=9), sh58 control (n=7), sh150 control (n=9), U87 radiation (n=8), sh58 radiation (n=6), sh150 radiation (n=10). FIGS. 11A-D show in vitro radiosensitivity and post-radiation tumor vasculature in U87 tumors. (A) Intrinsic tumor cell radiosensitivity was evaluated with the clonogenic assay. Following irradiation, the cells were incubated 9-13 d for colony formation depending on the dose administered. The surviving fractions were corrected for initial and final multiplicities determined 4-6 h after plating and at the time of irradiation. Data are expressed as mean±s.d. (B-D) When U87MG and nNOS-silenced U87 tumors grown in the hindleg in Rag-1^−/− mice reached ˜100 mm^3 they received 8 Gy/d for 3 d. […] (C-D) Quantification of the number of vessel segments (C) and vessel perimeter (D). […]
Equal amounts of 60 micrograms of protein per sample were separated on 7.5% SDS polyacrylamide gels, transferred onto polyvinylidene fluoride membrane (Millipore), incubated with primary antibodies followed by secondary antibodies (the same antibodies used in immunohistochemistry studies. See Immunohistochemistry methods below), and detected using enhanced chemiluminescence (GE Healthcare) by exposure on autoradiography films (Kodak) (Xu, L., et al. 2005 Cancer Res. 65, 5711-5719; Canneliet, P., et al. 1998 Nature 394, 485-490; Xu, L., et al. 2002 Journal of Biological Chemistry 277, 11368-11374 (2002); and Xu, L., et al. 2004 Clinical Cancer Research 10, 701-707).
The extent of hypoxia was determined in U87MG, U87-shRNA58, and U87-shRNA150 tumors utilizing a redox marker pimonidazole (Hypoxyprobe™-1 Kit, Millipore). […]

A further data set concerns U87 tumors. Nature of the data set: Fractionated radiation therapy of U87 tumors grown in the hind leg. In kind it is in vivo, mice. The conditions noted are these: 3 daily fractions of 8 Gy, compared to irradiated U87MG tumor bearing animals. The method, then: When tumors grown in the hindleg reached about 100 mm^3, animals were randomly assigned to radiation or control group (day 0). In the radiation groups, tumors were locally irradiated with three daily fractions, 8 Gy each, using a ^137Cs gamma irradiator (Hranitzky, E. B., et al. 1973 Radiology 107, 641-644) at a dose rate of approximately 5 Gy/min. The details of irradiation are described elsewhere (Kozin, S. V., et al. 2001 Cancer Research 61, 39-44). Tumor size was measured with a caliper at least every other day. The time taken for tumor to increase in volume 2×, 3×, 4×, 5×, 6×, and 7× of the initial volume (V0) was determined. Tumor growth delay was calculated as the difference of this parameter between irradiated tumors and nonradiated control tumors of the same genotype. Mice were euthanized when the tumors reached 12 mm in diameter. Survival time of individual animals (spontaneous death or by euthanasia at maximum tumor size) was determined after the start of radiation/control treatment.
The effect of radiation treatment on U87MG, U87-shRNA58 and U87-shRNA150 tumors was determined. Tumors were grown subcutaneously in the hind leg of Rag-1^−/− mice. When tumors reached ˜100 mm^3, they were randomly assigned to control and radiation treatment groups. […] Tumor growth and overall animal survival were monitored. […]

This is an account of results in patent US20130195926A1, “MODULATION OF NITRIC OXIDE SIGNALING TO NORMALIZE TUMOR VASCULATURE” (The General Hospital Corporation, priority 2007, published 2013).

Regarding “shRNA150: short-hairpin RNA for nNOS, GGTCTATCCAATGTCCACA (sense), TGTGGACATTGGATAGACCTT (antisense), in pSilencer 3.1 H-1-hygro”, in the data set with HIF-1α, the “HIF-1α protein levels, % of that in U87MG tumors” value came out at 59% and the “hypoxia inducible factor-1α (HIF-1α) protein levels” value was “reduction”. Moreover, the “animal survival after radiation treatment” value in the data set with U87 tumors is reported as “Significant extension”.

Regarding “shRNA58: short-hairpin RNA for nNOS, CAAAGAGATCGACACCATC (sense), GATGGTGTCGATCTCTTTGTT (antisense), in pSilencer 3.1 H-1-hygro, stably transfected into U87MG”, in the data set with HIF-1α, the “HIF-1α protein levels, % of that in U87MG tumors” value amounted to 46% and the “hypoxia inducible factor-1α (HIF-1α) protein levels” value is given as “reduction”. Moreover, in the data set on U87 tumors, the “animal survival after radiation treatment” value is “Significant extension”.
